Values quoted from earlier work in patent US20200093783A1, “Preparation and Anti-HepG2 Application for Urushiol-Based pH Response Micelle Encapsulating Paclitaxel” (Nanjing Zhongsen Biological Technology Co., Ltd., priority 2019, published 2020).

Tested on: most of tumor cells
Conditions: background statement

urushiol
IC50 (50% inhibiting concentration): 4 µg/mL
